# From the Kinase Knowledgebase extract (Sharma et al. 2016)
# Target: EGFR (UniProt P00533)
# Sequence (P00533 whole entry, looked up): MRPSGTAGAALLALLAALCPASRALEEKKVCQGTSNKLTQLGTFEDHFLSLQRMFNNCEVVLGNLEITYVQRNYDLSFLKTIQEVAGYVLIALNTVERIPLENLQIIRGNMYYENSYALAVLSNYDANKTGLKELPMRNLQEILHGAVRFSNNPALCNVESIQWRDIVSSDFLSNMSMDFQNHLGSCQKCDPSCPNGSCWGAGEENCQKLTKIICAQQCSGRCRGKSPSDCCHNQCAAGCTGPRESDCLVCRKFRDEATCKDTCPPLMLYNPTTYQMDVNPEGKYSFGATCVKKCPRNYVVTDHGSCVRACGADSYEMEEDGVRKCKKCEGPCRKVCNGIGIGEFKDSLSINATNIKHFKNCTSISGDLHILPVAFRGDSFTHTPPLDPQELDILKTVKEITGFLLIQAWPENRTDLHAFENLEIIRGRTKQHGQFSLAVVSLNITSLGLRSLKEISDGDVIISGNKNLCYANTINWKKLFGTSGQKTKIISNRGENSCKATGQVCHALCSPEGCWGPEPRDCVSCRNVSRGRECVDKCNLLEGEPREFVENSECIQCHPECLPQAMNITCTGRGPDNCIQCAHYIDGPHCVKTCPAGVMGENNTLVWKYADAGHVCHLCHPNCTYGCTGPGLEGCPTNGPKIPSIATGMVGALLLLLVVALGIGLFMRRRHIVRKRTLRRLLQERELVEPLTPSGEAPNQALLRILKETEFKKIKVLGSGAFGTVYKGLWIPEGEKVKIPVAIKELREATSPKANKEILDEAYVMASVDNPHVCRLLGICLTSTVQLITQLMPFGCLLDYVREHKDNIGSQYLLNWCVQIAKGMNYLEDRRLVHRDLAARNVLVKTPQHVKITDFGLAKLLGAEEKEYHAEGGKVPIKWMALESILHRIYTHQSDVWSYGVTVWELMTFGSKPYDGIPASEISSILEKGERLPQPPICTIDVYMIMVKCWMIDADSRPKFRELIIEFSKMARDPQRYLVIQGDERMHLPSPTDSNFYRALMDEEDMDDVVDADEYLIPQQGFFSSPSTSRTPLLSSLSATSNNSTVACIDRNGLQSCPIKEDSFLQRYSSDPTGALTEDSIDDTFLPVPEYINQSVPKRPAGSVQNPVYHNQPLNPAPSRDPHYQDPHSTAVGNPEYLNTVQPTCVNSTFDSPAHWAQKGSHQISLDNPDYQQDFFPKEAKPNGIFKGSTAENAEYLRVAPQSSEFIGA
row,SMILES,IC50
1,COC(=O)c1cn2ncnc(C3C(=O)Nc4ccc(S(=O)(=O)NCCO)cc43)c2c1C (stereo not given),0.003 to 25 µM
2,COc1c(NCCCCN2CCOCC2)cn2ncnc(C3C(=O)Nc4ccccc43)c12 (stereo not given),0.003 to 25 µM
3,COc1c(N)cn2ncnc(C3C(=O)Nc4ccccc43)c12 (stereo not given),0.003 to 25 µM
4,COC(=O)c1cn2ncnc(Nc3ccc(F)c(Cl)c3)c2c1C,0.003 to 25 µM
5,Cc1ccc(Nc2ncnn3cc(C(=O)N4CCN(C)CC4)c(C)c23)cc1O,0.003 to 25 µM
6,Cc1c(NC(=O)NCCN2CCOCC2)cn2ncnc(C3C(=O)Nc4ccccc43)c12 (stereo not given),0.003 to 25 µM
7,COCCCNC(=O)c1cn2ncnc(Nc3ccc(C)c(O)c3)c2c1C,0.003 to 25 µM
8,CCOC(=O)c1cn2ncnc(C3C(=O)Nc4ccccc43)c2c1OCC (stereo not given),0.003 to 25 µM
9,CCOC(=O)c1cn2ncnc(NCCc3ccccn3)c2c1CC,0.003 to 25 µM
10,CCOC(=O)c1cn2ncnc(Nc3ccc(F)c(Cl)c3)c2c1CC,0.003 to 25 µM
11,Cc1c(C(=O)NCCCn2cncn2)cn2ncnc(C3C(=O)Nc4ccccc43)c12 (stereo not given),0.003 to 25 µM
12,Cc1c(N(C)C)c(CO)n2ncnc(C3C(=O)Nc4ccccc43)c12 (stereo not given),0.003 to 25 µM
13,CCCCNc1ncnn2cc(C(=O)OCC)c(CC)c12,0.003 to 25 µM
14,COc1c(C(=O)NCCCN2CCOCC2)cn2ncnc(C3C(=O)Nc4ccccc43)c12 (stereo not given),0.003 to 25 µM
15,COC(=O)c1cn2ncnc(Nc3ccc4[nH]nnc4c3)c2c1C,0.003 to 25 µM
16,CCc1c(C(=O)NCCN2CCOCC2)c(Br)n2ncnc(Nc3ccc4c(cnn4Cc4ccccc4)c3)c12,0.003 to 25 µM
17,CCOC(=O)c1cn2ncnc(Nc3ccc(OC)nc3)c2c1OC,0.003 to 25 µM
18,Cc1nc(C2C(=O)Nc3ccccc32)c2c(C)c(C(N)=O)cn2n1 (stereo not given),0.003 to 25 µM
19,COC(=O)c1cn2ncnc(Nc3cccc(C(=O)O)c3)c2c1C,0.003 to 25 µM
20,CCCCNS(=O)(=O)c1cccc(Nc2ncnn3cc(C(=O)OC)c(C)c23)c1,0.003 to 25 µM
21,COC(=O)c1cn2ncnc(Nc3cccc4cnccc34)c2c1C,0.003 to 25 µM
22,COC(=O)c1cn2ncnc(Nc3ccc(NC(C)=O)nc3)c2c1C,0.003 to 25 µM
23,Cc1c(OCCCn2cncn2)cn2ncnc(C3C(=O)Nc4ccccc43)c12 (stereo not given),0.003 to 25 µM

row,SMILES,IC50
1,CCOC(=O)c1cn2ncnc(Nc3ccc4cn[nH]c4c3)c2c1CC,0.003 to 25 µM
2,Cc1nc(Nc2ccc(C)c(O)c2)c2c(C)c(C(N)=O)cn2n1,0.003 to 25 µM
3,COC(=O)c1cc2c(C3C(=O)Nc4ccccc43)ncnn2c1 (stereo not given),0.003 to 25 µM
4,COC(=O)c1cc2c(Nc3ccc(F)c(Cl)c3)ncnn2c1,0.003 to 25 µM
5,COc1c(C(=O)NCCN2CCCC2)cn2ncnc(Nc3ccc(Br)cc3F)c12,0.003 to 25 µM
6,COC(=O)c1cn2ncnc(Nc3ccc(OC)cc3)c2c1C,0.003 to 25 µM
7,COC(=O)c1cc2c(Nc3ccc4c(cnn4Cc4ccccc4)c3)ncnn2c1,0.003 to 25 µM
8,COC(=O)c1cn2ncnc(Nc3ccc(O)c(C(=O)O)c3)c2c1C,0.003 to 25 µM
9,Cc1ccc(Nc2ncnn3cc(C(=O)O)c(C)c23)cc1O,0.003 to 25 µM
10,Cc1c(C(=O)CCN2CCN(C)CC2)cn2ncnc(C3C(=O)Nc4ccccc43)c12 (stereo not given),0.003 to 25 µM
11,COC(=O)c1cn2ncnc(Nc3ccc(C)c(C)c3)c2c1C,0.003 to 25 µM
12,COC(=O)c1cn2ncnc(Nc3ccc(OC)c(OC)c3)c2c1C,0.003 to 25 µM
13,COC(=O)c1cn2ncnc(Nc3cccc(NC(C)=O)c3)c2c1C,0.003 to 25 µM
14,Cc1cc2c(Nc3ccc(Br)cc3F)ncnn2c1,0.003 to 25 µM
15,CCOC(=O)c1cn2ncnc(NCC3CCCCC3)c2c1CC,0.003 to 25 µM
16,COC(=O)c1cn2ncnc(Nc3ccc(C)cn3)c2c1C,0.003 to 25 µM
17,Cc1ccc(Nc2ncnn3ccc(C)c23)c(O)c1,0.003 to 25 µM
18,Cc1ccc(Nc2ncnn3cc(C(=O)NCCCS(C)(=O)=O)c(C)c23)cc1O,0.003 to 25 µM
19,COC(=O)c1cn2ncnc(Nc3ccc(C)c(F)c3)c2c1C,0.003 to 25 µM
20,Cc1ccc(Nc2ncnn3cc(OCCCn4nccn4)c(C)c23)cc1O,0.003 to 25 µM
21,CCOC(=O)c1cn2ncnc(N[C@H](C)c3ccccc3)c2c1CC,0.003 to 25 µM
22,Cc1c(C(=O)NCC2CCCO2)cn2ncnc(C3C(=O)Nc4ccccc43)c12 (stereo not given),0.003 to 25 µM
23,CCOC(=O)c1cn2ncnc(NCc3ccccc3)c2c1CC,0.003 to 25 µM

row,SMILES,IC50
1,Cc1ccc(Nc2ncnn3cc(C(=O)NCCN4CCCC4)c(C)c23)cc1O,0.003 to 25 µM
2,Cc1c(NC(=O)NCCCCN2CCOCC2)cn2ncnc(C3C(=O)Nc4ccccc43)c12 (stereo not given),0.003 to 25 µM
3,COc1c(C(=O)NCCCn2cncn2)cn2ncnc(C3C(=O)Nc4ccccc43)c12 (stereo not given),0.003 to 25 µM
4,CCOC(=O)c1cn2ncnc(Nc3ccc(F)c(Cl)c3)c2c1Cc1ccccc1,0.003 to 25 µM
5,CCOC(=O)c1cn2ncnc(N[C@H]3CC[C@H](O)CC3)c2c1CC,0.003 to 25 µM
6,Cc1c(NS(=O)(=O)CCCN2CCOCC2)cn2ncnc(C3C(=O)Nc4ccccc43)c12 (stereo not given),0.003 to 25 µM
7,Cc1ccc2c(Nc3ccc(Br)cc3F)ncnn12,0.003 to 25 µM
8,CCOC(=O)c1cn2ncnc(Nc3ccc(C)c(O)c3)c2c1C(=O)OCC,0.003 to 25 µM
9,COC(=O)c1cn2ncnc(Nc3cc(C)[nH]n3)c2c1C,0.003 to 25 µM
10,CCOC(=O)c1cn2ncnc(NCC3CCC(C#N)CC3)c2c1CC (stereo not given),0.003 to 25 µM
11,COC(=O)c1c(OC)c(OC)c2c(C3C(=O)Nc4ccccc43)ncnn12 (stereo not given),0.003 to 25 µM
12,COC(=O)c1cn2ncnc(Nc3cc[nH]n3)c2c1C,0.003 to 25 µM
13,CCc1c(C(=O)OCc2ccccc2)cn2ncnc(Nc3ccc(F)c(Cl)c3)c12,0.003 to 25 µM
14,COC(=O)c1cn2ncnc(Nc3cccc(O)c3)c2c1C,0.003 to 25 µM
15,COC(=O)c1cn2ncnc(N(C)c3ccc(C)c(O)c3)c2c1C,0.003 to 25 µM
16,COC(=O)c1cn2ncnc(Nc3ccc(Oc4ccccc4)cc3)c2c1C,0.003 to 25 µM
17,COC(=O)c1cn2ncnc(Nc3ccc4c(c3)N(C(C)=O)CC4)c2c1C,0.003 to 25 µM
18,COC(=O)c1cn2ncnc(C3C(=O)Nc4ccc(F)cc43)c2c1C (stereo not given),0.003 to 25 µM
19,COC(=O)c1cn2ncnc(Nc3ccc(OC)nc3)c2c1C,0.003 to 25 µM
20,COc1c(OCc2ccccc2)cn2ncnc(C3C(=O)Nc4ccccc43)c12 (stereo not given),0.003 to 25 µM
21,COC(=O)c1cn2ncnc(Nc3cccc(C#N)c3)c2c1C,0.003 to 25 µM

# Next, values leading:
row,IC50,SMILES
1,0.003 to 25 µM,Cc1ccc(Nc2ncnn3cc(C(=O)NCCCN4CCN(C)CC4)c(C)c23)cc1O
2,0.003 to 25 µM,CCOC(=O)c1cn2ncnc(Nc3ccc(C)c(O)c3)c2c1OC
3,0.003 to 25 µM,COc1ccc(Nc2ncnn3cc(C(=O)NCCCN4CCOCC4)c(C)c23)cc1O
4,0.003 to 25 µM,CCCc1c(C(=O)OCC)cn2ncnc(Nc3ccc(C)c(O)c3)c12
5,0.003 to 25 µM,CCCc1ccc(Nc2ncnn3cc(C(=O)OC)c(C)c23)cc1O
6,0.003 to 25 µM,CCc1ccc(Nc2ncnn3cc(C(=O)NCCCN4CCOCC4)c(C)c23)cc1O
7,0.003 to 25 µM,CCc1c(C(=O)N(C)C)cn2ncnc(Nc3ccc4c(cnn4Cc4ccccc4)c3)c12
8,0.003 to 25 µM,COC(=O)c1cn2ncnc(Nc3nc4ccccc4s3)c2c1C
9,0.003 to 25 µM,Cc1ccc(Nc2ncnn3cc(C(=O)OCc4ccccc4)c(C)c23)cc1O
10,0.003 to 25 µM,Cc1c(C(=O)OCc2ccccc2)cn2ncnc(C3C(=O)Nc4ccccc43)c12 (stereo not given)
11,0.003 to 25 µM,Cc1nc(C2C(=O)Nc3ccccc32)c2c(C)c(C(=O)NCCCN3CCOCC3)cn2n1 (stereo not given)
12,0.003 to 25 µM,CCOC(=O)c1cn2ncnc(Nc3ccc(C)c(O)c3)c2c1CC
13,0.003 to 25 µM,COC(=O)c1cn2ncnc(Nc3cc(C)cc(O)c3)c2c1C
14,0.003 to 25 µM,CCOC(=O)c1cn2ncnc(Nc3ccc(Oc4ccccc4)cc3)c2c1CC
15,0.003 to 25 µM,COc1c(NCCCCN2CCN(C)CC2)cn2ncnc(C3C(=O)Nc4ccccc43)c12 (stereo not given)
16,0.003 to 25 µM,CCOC(=O)c1cn2ncnc(Nc3cccc(Br)c3)c2c1CC
17,0.003 to 25 µM,COc1c(NC(=O)OCc2ccccc2)cn2ncnc(C3C(=O)Nc4ccccc43)c12 (stereo not given)
18,0.003 to 25 µM,COC(=O)c1cn2ncnc(Nc3ccc(F)c(Cl)c3)c2c1CCCOCc1ccccc1
19,0.003 to 25 µM,Cc1ccc(Nc2ncnn3cc(C(=O)NCCCCN(C)C)c(C)c23)cc1O
20,0.003 to 25 µM,COC(=O)c1cn2ncnc(Nc3ccc(C)c(NS(C)(=O)=O)c3)c2c1C
21,0.003 to 25 µM,CCOC(=O)c1cn2ncnc(NCC3(O)CCCCC3)c2c1CC
22,0.003 to 25 µM,COC(=O)c1cn2ncnc(Cl)c2c1C
23,0.003 to 25 µM,Cc1ccc(Nc2ncnn3cccc23)cc1O
24,0.003 to 25 µM,COC(=O)c1cn2ncnc(Nc3ccc(Br)c(O)c3)c2c1C

row,IC50,SMILES
1,0.003 to 25 µM,COC(=O)c1cn2ncnc(C3C(=O)Nc4ccc(C#N)cc43)c2c1C (stereo not given)
2,0.003 to 25 µM,COC(=O)c1cn2ncnc(-n3c(=O)[nH]c4ccccc43)c2c1C
3,0.003 to 25 µM,COC(=O)c1cn2ncnc(Nc3ccc(C(=O)O)c(O)c3)c2c1C
4,0.003 to 25 µM,Cc1c(OCCn2cncn2)cn2ncnc(C3C(=O)Nc4ccccc43)c12 (stereo not given)
5,0.003 to 25 µM,CCOC(=O)c1cn2ncnc(N3CCCC4C=CC=CC43)c2c1CC (stereo not given)
6,0.003 to 25 µM,Cc1c(OCCCn2nccn2)cn2ncnc(Nc3ccc(Br)cc3F)c12
7,0.003 to 25 µM,Cc1c(C(=O)NCCCn2ccnn2)cn2ncnc(C3C(=O)Nc4ccccc43)c12 (stereo not given)
8,0.003 to 25 µM,COC(=O)c1cn2ncnc(Nc3ccc(C)c(C#N)c3)c2c1C
9,0.003 to 25 µM,CCOC(=O)c1cn2ncnc(Nc3ccc(C)c(O)c3)c2c1-c1ccccc1
10,0.003 to 25 µM,CCOC(=O)c1cn2ncnc(Nc3ccccc3)c2c1CC
11,0.003 to 25 µM,COC(=O)c1cn2ncnc(C3C(=O)N(C)c4ccccc43)c2c1C (stereo not given)
12,0.003 to 25 µM,CCOC(=O)c1cn2ncnc(N3CCOCC3)c2c1CC
13,0.003 to 25 µM,Cc1c(CCCN2CCOCC2)cn2ncnc(Nc3cccc(Br)c3)c12
14,0.003 to 25 µM,CCNC(=O)c1cn2ncnc(Nc3ccc4c(cnn4Cc4ccccc4)c3)c2c1CC
15,0.003 to 25 µM,CCc1ccn2ncnc(Nc3ccc(C)c(O)c3)c12
16,0.003 to 25 µM,COC(=O)c1cn2ncnc(Nc3ccccc3S(N)(=O)=O)c2c1C
17,0.003 to 25 µM,CCOC(=O)c1cn2ncnc(Nc3cccc4c3cnn4Cc3ccccc3)c2c1CC
18,0.003 to 25 µM,COC(=O)c1cn2ncnc(-c3c(O)[nH]c4cc(F)ccc34)c2c1C
19,0.003 to 25 µM,CCOC(=O)c1cn2ncnc(N[C@@H](C)c3ccccc3)c2c1CC
20,0.003 to 25 µM,CCOC(=O)c1cn2ncnc(NCc3ccccc3Br)c2c1CC
21,0.003 to 25 µM,COC(=O)c1cn2ncnc(Nc3ccc(Cl)c([N+](=O)[O-])c3)c2c1C
22,0.003 to 25 µM,Cc1cc2c(Nc3ccc(C)c(O)c3)ncnn2c1
23,0.003 to 25 µM,CCc1c(CO)c(Br)n2ncnc(Nc3ccc4c(cnn4Cc4ccccc4)c3)c12
24,0.003 to 25 µM,Cc1c(NC(=O)NCCCN2CCOCC2)cn2ncnc(C3C(=O)Nc4ccccc43)c12 (stereo not given)
